# In patent US20060287375A1 (priority 2003, published 2006):
# Read-outs that look alike come from different tables or passages of the source.
# How the values were obtained:
# [1] = system: Pyricularia oryzae; type: in vivo; settings: rice seedlings (Aichi Asahi), wettable powder sprayed at 500 ppm active ingredient, 10 ml per pot; examined 5 days after inoculation
# [2] = system: Pseudoperonospora cubensis; settings: cucumber seedlings (sagami hanjiro), wettable powder at 500 ppm, 15 ml per pot; examined 7 days later
# Description: 10 cucumber seeds (variety: sagami hanjiro) were sown in each of vinyl chloride resin made pots of 9 cm×9 cm and were allowed to germinate in a greenhouse for 7 days. The resulting cucumber young seedlings which reached a cotyledon stage were used as a sample plant. […] The plant was air-dried and inoculated, by spraying, with a suspension of conidia of Pseudoperonospora cubensis. Immediately, the pot was placed in a wet house of 20° C. for 24 hours. Then, the pot was transferred into a greenhouse. 7 days later, the total diseased area of all the cotyledons in the pot was examined.
# [3] = system: Septoria nodorum; assay: Test for control effect on Septoria leaf spot of wheat; type: in vivo; settings: wheat seedlings (Nohrin No. 61), wettable powder at 500 ppm, 10 ml per pot; examined 10 days after inoculation
# From the text: Test for Control Effect on Septoria Leaf Spot of Wheat
# In each of plastic pots of 6 cm in diameter were sown 10 wheat seeds (variety: Nohrin No. 61). They were allowed to germinate in a greenhouse. […] After air-drying, the seedlings were inoculated with pycnospores of Septoria nodorum and the pot was placed in a greenhouse. After 10 days from the inoculation, the total diseased area of all the first leaves in the pot was examined.
# [4] = system: Pyricularia oryzae; type: in vivo; settings: paddy rice (Aichi Asahi), wettable powder on water surface, 1,000 g active ingredient per 10 ares; inoculated 10 days after application, examined 5 days after inoculation
# [5] = system: Pyricularia oryzae; type: in vivo; settings: rice (Aichi Asahi), granule applied to seedling-raising box, 12 g active ingredient per box; inoculated 40 days after application, examined 6 days after inoculation
# [6] = system: Erysiphe graminis; assay: Test for control effect on powdery mildew of wheat; type: in vivo; settings: wheat seedlings (Nohrin No. 61), wettable powder at 500 ppm, 10 ml per pot; inoculated 7 days after application, examined 8 days after inoculation
# From the text: Test for Control Effect on Powdery Mildew of Wheat
# In each of plasic pots of 6 cm in diameter were sown 10 wheat seeds (variety: Nohrin No. 61). They were allowed to germinate in a greenhouse. […] After 7 days from the application, the seedlings were inoculated, by spraying, with conidia of Erysiphe graminis. After 8 days from the inoculation, the total infected area of all the first leaves in the pot was examined.
Compound,"Evaluation (preventive value, number of lesions of the fourth leaf) [1]",Evaluation (total diseased area of all the cotyledons) [2],Evaluation (total diseased area of all the first leaves) [3],"Evaluation (preventive value, number of lesions of the upper young leaf) [4]","Evaluation (preventive value, number of lesions of the upper young leaf) [5]",Evaluation (total infected area of all the first leaves) [6]
CC(C)COC(=O)N1C(=S)c2ccccc2S1(=O)=O [compound 9],B (Less than 100 to 80.0 or more),B (Less than 25% of untreated plot),B (Less than 25% of untreated plot),B (Less than 100 to 80.0 or more),,
"CCOCN1C(=S)c2ccccc2S1(=O)=O [compound 3, 2-ethoxymethyl-1,2-benzisothiazoline-3-thioxo-1,1-dioxide]",B (Less than 100 to 80.0 or more),,,B (Less than 100 to 80.0 or more),B (Less than 100 to 80.0 or more),
O=S1(=O)c2ccccc2C(=S)N1CC=CCl [Compound No. 50],,B (Less than 25% of untreated plot),B (Less than 25% of untreated plot),,,
COCN1C(=S)c2ccccc2S1(=O)=O [compound 2],B (Less than 100 to 80.0 or more),B (Less than 25% of untreated plot),,B (Less than 100 to 80.0 or more),B (Less than 100 to 80.0 or more),B (Less than 25% of untreated plot)
CCOC(=O)C(C(=O)OCC)N1C(=S)c2ccccc2S1(=O)=O [compound 42],,B (Less than 25% of untreated plot),,,,
COCCN1C(=S)c2ccccc2S1(=O)=O [compound 53],,B (Less than 25% of untreated plot),,,,
N#CSCN1C(=S)c2ccccc2S1(=O)=O [compound 48],B (Less than 100 to 80.0 or more),B (Less than 25% of untreated plot),B (Less than 25% of untreated plot),,,
"CCOC(=O)N1C(=S)c2ccccc2S1(=O)=O [Compound No. 5, 2-ethoxycarbonyl-1,2-benzisothiazoline-3-thioxo-1,1-dioxide]",B (Less than 100 to 80.0 or more),,B (Less than 25% of untreated plot),B (Less than 100 to 80.0 or more),B (Less than 100 to 80.0 or more),
C#CCOC(=O)N1C(=S)c2ccccc2S1(=O)=O [compound 8],B (Less than 100 to 80.0 or more),,,B (Less than 100 to 80.0 or more),,B (Less than 25% of untreated plot)
O=C(OCN1C(=S)c2ccccc2S1(=O)=O)c1cc(Cl)nc(Cl)c1 [compound 47],,,,B (Less than 100 to 80.0 or more),B (Less than 100 to 80.0 or more),
"C=CCOC1=NS(=O)(=O)c2ccccc21 [Probenazole, reference compound]",,,,B (Less than 100 to 80.0 or more),B (Less than 100 to 80.0 or more),
"O=S1(=O)c2ccccc2C(=S)N1CBr [compound 44, 2-bromomethyl-1,2-benzisothiazoline-3-thioxo-1,1-dioxide]",B (Less than 100 to 80.0 or more),,B (Less than 25% of untreated plot),B (Less than 100 to 80.0 or more),,
C=CCOC(=O)N1C(=S)c2ccccc2S1(=O)=O [compound 7],B (Less than 100 to 80.0 or more),,B (Less than 25% of untreated plot),B (Less than 100 to 80.0 or more),,
CCCOC(=O)N1C(=S)c2ccccc2S1(=O)=O [compound 6],A (100),B (Less than 25% of untreated plot),B (Less than 25% of untreated plot),B (Less than 100 to 80.0 or more),,
CC(C[N+](=O)[O-])N1C(=S)c2ccccc2S1(=O)=O (stereo not shown) [compound 40],B (Less than 100 to 80.0 or more),,B (Less than 25% of untreated plot),B (Less than 100 to 80.0 or more),,
